Results on 28 molecules are retold here after ChEMBL document CHEMBL1124876, “Organic phosphorus compounds. 5. (4-Benzothiazol-2-ylbenzyl)amidophosphonate as potent calcium antagonistic vasodilators” (J Med Chem, 1990).

Activity calls are given as the source filed them. The rule behind the calls is not given here.

Data set [1] relates to Canis familiaris. Nature of the data set: Coronary vasodilatory activity as increase in coronary blood flow was determined in dogs after i.v. administration of the compound. The class given is functional, Canis lupus familiaris, Artery.
Data set [2] concerns Canis familiaris. Nature of the data set: Ability to increase coronary blood flow after intra duodenal administration at 3 mg/kg in dog; (SE +/- 27). The following applies: route intraduodenal. The class given is functional, Canis lupus familiaris.
For data set [3], the system named is Canis familiaris. Kind of data set: Coronary vasodilatory activity as increase in coronary flow was determined in dogs after 0.1 mg/kg i.v. administration of the compound; (SE +/- 5). Particulars: route intravenous. The class given is functional, Canis lupus familiaris.
Data set [4] is filed under the species Cavia porcellus. Kind of data set: Calcium antagonistic activity in isolated guinea pig Tenia coli specimens; (SE +/- 0.08). The class given is functional. Particulars: read-out: pA2 (converted).
Data set [5] can be described thus: Lethal effect after per os administration in mouse for 7 days. Particulars: in vivo, po. The class given is toxicity.
The subject of data set [6] is Canis familiaris. Kind of data set: Coronary vasodilatory activity as increase in coronary flow was determined in dogs after 0.1 mg/kg i.v. administration of the compound; (SE +/- 12.9). It counts as functional, Canis lupus familiaris. Particulars: route intravenous.
For data set [7], the system named is Canis familiaris. Nature of the data set: Coronary vasodilatory activity as increase in coronary flow was determined in dogs after 0.1 mg/kg i.v. administration of the compound; (SE +/- 27). It counts as functional, Canis lupus familiaris. The following applies: route intravenous.
Data set [8] is described as follows: Partition coefficient (logP). It counts as physicochemical. Particulars: octanol/water.
For data set [9], the system named is Canis familiaris. Nature of the data set: Coronary vasodilatory activity as increase in coronary flow was determined in dogs after 0.1 mg/kg i.v. administration of the compound. It counts as functional, Canis lupus familiaris. The following applies: route intravenous.
Data set [10] relates to Canis familiaris. Kind of data set: Coronary vasodilatory activity as increase in coronary flow was determined in dogs after 0.1 mg/kg i.v. administration of the compound; (SE +/- 6.6). The class given is functional, Canis lupus familiaris. The following applies: route intravenous.
For data set [11], the system named is Canis familiaris. Kind of data set: Coronary vasodilatory activity as increase in coronary flow was determined in dogs after 0.1 mg/kg i.v. administration of the compound; (SE +/- 3.3). It counts as functional, Canis lupus familiaris. Particulars: route intravenous.
The subject of data set [12] is Canis familiaris. Kind of data set: Ability to increase coronary blood flow after intra duodenal administration at 3 mg/kg in dog; (SE +/- 24). The class given is functional, Canis lupus familiaris. Particulars: route intraduodenal.
The test system of data set [13] is Canis familiaris. Kind of data set: Coronary vasodilatory activity as increase in coronary flow was determined in dogs after 0.1 mg/kg i.v. administration of the compound; (SE +/- 9). It counts as functional, Canis lupus familiaris. Particulars: route intravenous.
For data set [14], the species on record is Cavia porcellus. Kind of data set: Calcium antagonistic activity in isolated guinea pig Tenia coli specimens; (SE +/- 0.10). It counts as functional. The following applies: read-out: pA2 (converted).
Data set [15] relates to Canis familiaris. Nature of the data set: Ability to increase coronary blood flow after intra duodenal administration at 3 mg/kg in dog; (SE +/- 21). The class given is functional, Canis lupus familiaris. The following applies: route intraduodenal.
The test system of data set [16] is Canis familiaris. Kind of data set: Coronary vasodilatory activity as increase in coronary flow was determined in dogs after 0.1 mg/kg i.v. administration of the compound; (SE +/- 7.4). The class given is functional, Canis lupus familiaris. Particulars: route intravenous.
For data set [17], the species on record is Cavia porcellus. Nature of the data set: Calcium antagonistic activity in isolated guinea pig Tenia coli specimens; (SE +/- 0.11). It counts as functional. Particulars: read-out: pA2 (converted).
Data set [18] concerns Canis familiaris. Nature of the data set: Coronary vasodilatory activity as increase in coronary flow was determined in dogs after 0.1 mg/kg i.v. administration of the compound; (SE +/- 22.2). It counts as functional, Canis lupus familiaris. Particulars: route intravenous.
The species entered for data set [19] is Cavia porcellus. Kind of data set: Calcium antagonistic activity in isolated guinea pig Tenia coli specimens; (SE +/- 0.13). Particulars: read-out: pA2 (converted). It counts as functional.
Data set [20] concerns Canis familiaris. Nature of the data set: Coronary vasodilatory activity as increase in coronary flow was determined in dogs after 0.1 mg/kg i.v. administration of the compound; (SE +/- 8.2). The class given is functional, Canis lupus familiaris. The following applies: route intravenous.
The test system of data set [21] is Canis familiaris. Kind of data set: Coronary vasodilatory activity as increase in coronary flow was determined in dogs after 0.1 mg/kg i.v. administration of the compound; IA = Inactive. Also noted: dose 0.1 mg/kg. The class given is functional, organism-based. The following applies: Canis lupus familiaris; at 0.1 mg/kg.
Data set [22] has as its system Canis familiaris. Nature of the data set: Ability to increase coronary blood flow after intra duodenal administration at 3 mg/kg in dog; (SE +/- 23). It counts as functional, Canis lupus familiaris, Blood/Heart. Particulars: route intraduodenal.
Data set [23] is filed under the species Cavia porcellus. Nature of the data set: Calcium antagonistic activity in isolated guinea pig Tenia coli specimens; (SE +/- 0.06). The class given is functional. The following applies: read-out: pA2 (converted).
For data set [24], the system named is Canis familiaris. Nature of the data set: Coronary vasodilatory activity as increase in coronary flow was determined in dogs after 0.1 mg/kg i.v. administration of the compound; (SE +/- 9.9). It counts as functional, Canis lupus familiaris. Particulars: route intravenous.
Data set [25] concerns Canis familiaris. Kind of data set: Coronary vasodilatory activity as increase in coronary flow was determined in dogs after 0.1 mg/kg i.v. administration of the compound; (SE +/- 13.1). It counts as functional, Canis lupus familiaris. The following applies: route intravenous.
The test system of data set [26] is Canis familiaris. Kind of data set: Ability to increase coronary blood flow after intra duodenal administration at 3 mg/kg in dog; (SE +/- 38). The class given is functional, Canis lupus familiaris. Particulars: route intraduodenal.
Data set [27] relates to Canis familiaris. Kind of data set: Coronary vasodilatory activity as increase in coronary flow was determined in dogs after 0.1 mg/kg i.v. administration of the compound; (SE +/- 0.1). It counts as functional, Canis lupus familiaris. The following applies: route intravenous.

The LD50 is the dose at which mortality reaches 50%. Read a high LD50 as lower toxicity. In the data set on Canis familiaris [1], `CCOP(=O)(Cc1ccc(-c2nc3ccccc3s2)cc1)OCC` [FOSTEDIL] yielded a CBF-ID75 of 0.116 mg/kg. Besides, in the data set on Canis familiaris [2], the “Change in blood flow” value came out at 92%. This molecule also came in with a Max increase in the data set on Canis familiaris [3] of 82.2%. Further, the Kb in the data set filed under Cavia porcellus [4] is 61.7 nM. The molecule further returned a 50% lethal dose (LD50) at 168 h in data set [5] of 1190 mg/kg. Take `CCOP(=O)(Cc1ccc(-c2nc3ccccc3s2)cc1)N1CCN(CC)C(=O)C1=O` (stereo not drawn): the Max increase with Canis familiaris [6] came out at 51.8%. Consider `CCOP(=O)(Cc1ccc(-c2nc3ccccc3s2)cc1)N1CCSC1=O` (stereo not drawn), for which, in the data set on Canis familiaris [1], the CBF-ID75 was determined as 0.0504 mg/kg. In the data set on Canis familiaris [7], this molecule had a Max increase of 155.3%. In [5], this molecule yielded an LD50 at 168 h above 1000 mg/kg. A word on the logP: it is a log measure of how a compound divides between an organic and an aqueous phase. A low value points to a more hydrophilic compound. Regarding `CCOC(=O)Cc1ccc(-c2nc3ccccc3s2)cc1`, the logP in [8] turned out to be 3.2. As to `CCNP(=O)(Cc1ccc(-c2nc3ccccc3s2)cc1)OCC` (stereo not drawn), the Max increase in the data set on Canis familiaris [9] was found to be 31.2%. Take `CCOP(=O)(Cc1ccc(-c2nc3ccccc3s2)cc1)N1CCCCC1=S` (stereo not drawn): the Max increase in the data set on Canis familiaris [10] turned out to be 24.7%.

With `CCOP(=O)(Cc1ccc(-c2nc3ccccc3s2)cc1)NC(C)C` (stereo not drawn), the Max increase in the data set on Canis familiaris [9] amounted to 73.2%. Consider `CCOP(=O)(Cc1ccc(-c2nc3ccccc3s2)cc1)N1CCN(Cc2ccc(OC)c(OC)c2OC)CC1.O=C(O)/C=C/C(=O)O` (stereo not drawn), for which, in the data set with Canis familiaris [11], the Max increase came out at 103.5%.

With `CCOP(=O)(Cc1ccc(-c2nc3ccccc3s2)cc1)N1CCOCC1` (stereo not drawn), in the data set on Canis familiaris [9], the Max increase stood at 69%.

As for `CCOP(=O)(Cc1ccc(-c2nc3ccccc3s2)cc1)N1CCCC1=O` (stereo not drawn), the logP in [8] was determined as 3. In the data set with Canis familiaris [1], the CBF-ID75 turned out to be 0.0414 mg/kg. Moreover, in the data set on Canis familiaris [12], the “Change in blood flow” value is 104%. In the data set with Canis familiaris [13], the Max increase turned out to be 124.1%. Moreover, the Kb in the data set listed under Cavia porcellus [14] is 29.5 nM. In addition, the LD50 at 168 h in [5] was found to be 2110 mg/kg. The molecule `Cc1ccc(-c2nc3ccccc3s2)cc1` returned a logP in data set [8] of 3.7. `CCOP(=O)(Cc1ccc(-c2nc3ccccc3s2)cc1)N1CCCCCC1` (stereo not drawn) gave a Max increase in the data set on Canis familiaris [9] of 49.3%. Consider `CCOP(=O)(Cc1ccc(-c2nc3ccccc3s2)cc1)N1CC=CC1` (stereo not drawn), for which the Max increase in the data set on Canis familiaris [9] came to 80.6%. In the data set with Canis familiaris [1], `CCOP(=O)(Cc1ccc(-c2nc3ccccc3s2)cc1)N1CCCCC1=O` (stereo not drawn) returned a CBF-ID75 of 0.0552 mg/kg. Moreover, in the data set on Canis familiaris [15], the “Change in blood flow” value was 40%. The same molecule showed a Max increase in the data set with Canis familiaris [16] of 101.9%. The Kb in the data set filed under Cavia porcellus [17] was 35.5 nM. Also, in data set [5], the LD50 at 168 h was above 1000 mg/kg. As to `CCOP(=O)(Cc1ccc(-c2nc3ccccc3s2)cc1)N1CCSC1=S` (stereo not drawn), the Max increase with Canis familiaris [16] came to 51.8%. Turning to `CCOP(=O)(Cc1ccc(-c2nc3ccccc3s2)cc1)N1CCOC1=O` (stereo not drawn), the CBF-ID75 with Canis familiaris [1] stood at 0.0773 mg/kg. Further, in the data set with Canis familiaris [18], the Max increase is given as 141.4%. Also, the Kb in the data set filed under Cavia porcellus [19] was 25.7 nM. In [5], this molecule yielded an LD50 at 168 h of 671 mg/kg.

Regarding `CCOP(=O)(Cc1ccc(-c2nc3ccccc3s2)cc1)NC1CC1` (stereo not drawn), the Max increase with Canis familiaris [9] is on record as 41.1%.

`CCOP(=O)(Cc1ccc(-c2nc3ccccc3s2)cc1)N1CCCC1=S` (stereo not drawn) gave a Max increase with Canis familiaris [16] of 64.9%.

In turn, `CCOP(=O)(Cc1ccc(-c2nc3ccccc3s2)cc1)N1CCCCC1` (stereo not drawn) came in with a Max increase in the data set on Canis familiaris [20] of 81.3%. Regarding `CCOP(=O)(Cc1ccc(-c2nc3ccccc3s2)cc1)NCc1ccccc1` (stereo not drawn), the Max increase entry in the data set on Canis familiaris [21] was “inactive”. Consider `COc1ccc([C@@H]2Sc3ccccc3N(CCN(C)C)C(=O)[C@@H]2OC(C)=O)cc1.Cl` [DILTIAZEM HYDROCHLORIDE], for which the CBF-ID75 in the data set with Canis familiaris [1] stood at 0.0771 mg/kg. In addition, the “Change in blood flow” value with Canis familiaris [22] came to 52%. Also, the Kb in the data set listed under Cavia porcellus [23] is 50.1 nM. In data set [5], this molecule yielded an LD50 at 168 h of 508 mg/kg. Consider `CCOP(=O)(Cc1ccc(-c2nc3ccccc3s2)cc1)N1CCCCCCC1=O` (stereo not drawn), for which the Max increase with Canis familiaris [24] came out at 70.7%. Consider `CCOP(=O)(Cc1ccc(-c2nc3ccccc3s2)cc1)N1CCCC1` (stereo not drawn), for which the Max increase in the data set on Canis familiaris [25] was 101.1%.

In the data set with Canis familiaris [1], `CCOP(=O)(Cc1ccc(-c2nc3ccccc3s2)cc1)N1CCCCCC1=O` (stereo not drawn) had a CBF-ID75 of 0.055 mg/kg. The “Change in blood flow” value in the data set on Canis familiaris [26] was determined as 69%. The molecule also returned a Max increase in the data set with Canis familiaris [13] of 102.8%. In the data set listed under Cavia porcellus [14], the Kb was 34.7 nM. This molecule also showed an LD50 at 168 h in data set [5] above 1000 mg/kg. Molecule `CCOP(=O)(Cc1ccc(-c2nc3ccccc3s2)cc1)OC` (stereo not drawn) displayed a logP in data set [8] of 3.5.

Molecule `CCOP(=O)(Cc1ccc(-c2nc3ccccc3s2)cc1)NCCCl` (stereo not drawn) came in with a Max increase with Canis familiaris [9] of 31.2%. On to `CCOP(=O)(Cc1ccc(-c2nc3ccccc3s2)cc1)N1CCN(C)CC1` (stereo not drawn), for which the Max increase in the data set with Canis familiaris [9] is 49.3%.

With `CCOP(=O)(Cc1ccc(-c2nc3ccccc3s2)cc1)N(CC)CC` (stereo not drawn), the Max increase in the data set on Canis familiaris [27] turned out to be 79.7%.
